Tests used:
Assay type in all cases: functional
[1] = test system: Human immunodeficiency virus 1; assay: (§1) Antiviral activity against Human immunodeficiency virus 1 clone 4736_9 harboring integrase N155H, E92Q H51Y and D6E, S17N, R20K, D25E, S39C, D41H, L45V, L101I, T124A, K160T, V201I,K211R, D288N mutation transfected in human C8166 cells assessed as decrease in compound susceptibility relative to wild-type
[2] = test system: Human immunodeficiency virus 1; assay: Antiviral activity against Human immunodeficiency virus 1 clone 8070_2 harboring integrase G140S, Q148H, K14R, L63I, L101I, T112A, G193E, D229E, D279G mutation transfected in human C8166 cells assessed as decrease in compound susceptibility relative to wild-type
[3] = test system: Human immunodeficiency virus 1; assay: Antiviral activity against Human immunodeficiency virus 1 clone 2253 harboring integrase S17N, V31I, I72V, L101I, T124A, K156N,V201I, I220M, D279G, R284G mutation transfected into human C8166 cells assessed as decrease in compound susceptibility relative to wild-type
[4] = test system: Human immunodeficiency virus 1; assay: as §1, with “4736_10” for “4736_9”, “V151I, G163R” for “E92Q H51Y”, “S39C,” for “S39C, D41H,”, “V201I, K211R,” for “V201I,K211R,”
[5] = test system: Human immunodeficiency virus 1; assay: Antiviral activity against Human immunodeficiency virus 1 clone 1556 harboring integrase Y143C, L74M, T97A, S230R, K7R, S17N, R20K, L101I, K111Q, T112K, S119R, T206S, D256E, V259I mutation transfected in human C8166 cells assessed as decrease in compound susceptibility relative to wild-type
[6] = test system: Human immunodeficiency virus 1; assay: Antiviral activity against Human immunodeficiency virus 1 clone 4736_4 harboring integrase N155H, E92Q and D6E, S17N, R20K, D25E, S39C, L45V, L101I, T124A, K160T, V201I, K211R, D288N mutation transfected in human C8166 cells assessed as decrease in compound susceptibility relative to wild-type
[7] = test system: Human immunodeficiency virus 1; assay: Antiviral activity against Human immunodeficiency virus 1 clone 4736_2 harboring integrase N155H,T97A and D6E, S17N, R20K, D25E, S39C, L45V,L101I, V201I, S119R, T124A, K160T, K211R, D288N mutation transfected into human C8166 cells assessed as decrease in compound susceptibility relative to wild-type
[8] = test system: Human immunodeficiency virus 1; assay: Antiviral activity against Human immunodeficiency virus 1 clone 1288 harboring integrase M154L and E11D, V31I, L101I, K160R, F181L,V201I, T206S, D256E mutation transfected into human C8166 cells assessed as decrease in compound susceptibility relative to wild-type
[9] = test system: Human immunodeficiency virus 1; assay: Antiviral activity against Human immunodeficiency virus 1 clone 8070_1 harboring integrase G140S, Y143H,Q148H and K14R, L101I, T112A, G193E, D229E, D279G mutation in transfected in human C8166 cells assessed as decrease in compound susceptibility relative to wild-type
[10] = test system: Human immunodeficiency virus 1; assay: Antiviral activity against Human immunodeficiency virus 1 clone 4378 harboring integrase E157Q V31I, V32I, S39C, I72V, L101I, K160Q, F181L, V201I, Q216H, A265V mutation transfected in human C8166 cells assessed as decrease in compound susceptibility relative to wild-type

Structure (SMILES): Cc1nnc(C(=O)NC(C)(C)c2nc(C(=O)NCc3ccc(F)cc3)c(O)c(=O)n2C)o1 [RALTEGRAVIR]
- fold change (FC) [1]: 94
- fold change (FC) [2]: >200
- fold change (FC) [3]: 0.4
- fold change (FC) [4]: 48
- fold change (FC) [5]: >200
- fold change (FC) [6]: 96
- fold change (FC) [7]: 116
- fold change (FC) [8]: 1.06
- fold change (FC) [9]: >200
- fold change (FC) [10]: 1.15
